Laboratory results published in paper PMC5542762 (ChemistryOpen, 2017).
Structures can show the parent of a compound that is named as a salt.

Key:
EcTAL = target: T1, EcTAL (Escherichia coli, UniProt P04968); assay: HPLC of remaining L-threonine after FDAA derivatization; type: biochemical; details: L-threonine 100 mM, pyridoxal phosphate 10 μM; Na2CO3-NaHCO3 100 mM, pH 9.0, 30 °C
T1 sequence (P04968 1-514): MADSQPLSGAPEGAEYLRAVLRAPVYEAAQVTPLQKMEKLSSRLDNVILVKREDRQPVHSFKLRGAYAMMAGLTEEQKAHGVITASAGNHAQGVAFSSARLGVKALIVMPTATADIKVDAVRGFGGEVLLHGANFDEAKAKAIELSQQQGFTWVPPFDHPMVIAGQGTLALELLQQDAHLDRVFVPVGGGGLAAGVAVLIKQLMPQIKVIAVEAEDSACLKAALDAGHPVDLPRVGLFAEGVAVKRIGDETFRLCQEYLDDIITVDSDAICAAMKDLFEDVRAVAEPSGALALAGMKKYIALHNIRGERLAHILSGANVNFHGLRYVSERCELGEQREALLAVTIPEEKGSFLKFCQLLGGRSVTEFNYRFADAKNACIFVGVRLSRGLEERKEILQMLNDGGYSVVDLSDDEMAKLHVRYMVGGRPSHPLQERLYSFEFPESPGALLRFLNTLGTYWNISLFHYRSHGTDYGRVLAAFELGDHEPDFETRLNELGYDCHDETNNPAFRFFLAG

PFDH = target: T2, PFDH (Pseudomonas sp. 101, UniProt P33160); assay: NAD+ reduction at […] nm, 96-well plate; type: biochemical; details: sodium formate 20 mM, NAD+ 0.50 mM; Na2CO3-NaHCO3 100 mM, pH 9.0, room temperature
T2 sequence (P33160 2-401): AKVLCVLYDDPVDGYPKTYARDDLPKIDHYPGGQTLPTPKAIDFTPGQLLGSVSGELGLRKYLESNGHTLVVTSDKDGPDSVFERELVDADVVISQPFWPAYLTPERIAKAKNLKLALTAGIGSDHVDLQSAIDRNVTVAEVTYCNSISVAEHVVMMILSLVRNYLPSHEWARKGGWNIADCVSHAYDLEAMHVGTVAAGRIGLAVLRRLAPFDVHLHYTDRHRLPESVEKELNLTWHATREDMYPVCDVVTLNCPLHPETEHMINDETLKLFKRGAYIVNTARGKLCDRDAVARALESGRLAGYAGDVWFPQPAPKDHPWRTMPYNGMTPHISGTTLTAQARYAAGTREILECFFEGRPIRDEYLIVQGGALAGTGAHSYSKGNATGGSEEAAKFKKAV

| SMILES | HPLC of remaining L-threonine after FDAA derivatization (EcTAL) | NAD+ reduction at 340 nm, 96-well plate (PFDH) |
| --- | --- | --- |
| C[C@@H](O)[C@H](N)C(=O)O [L-threonine] | The activity of EcTAL toward L‐threonine was determined by measuring the decrease of threonine |  |
| O=CO [sodium formate] |  | the activity of the FDH toward the oxidation of formate were determined |
